The target in series [1] is T1, hNK2 receptor (Homo sapiens, UniProt P21452).
T1 construct: host or cells: CHO cells
T1 sequence (P21452 1-398): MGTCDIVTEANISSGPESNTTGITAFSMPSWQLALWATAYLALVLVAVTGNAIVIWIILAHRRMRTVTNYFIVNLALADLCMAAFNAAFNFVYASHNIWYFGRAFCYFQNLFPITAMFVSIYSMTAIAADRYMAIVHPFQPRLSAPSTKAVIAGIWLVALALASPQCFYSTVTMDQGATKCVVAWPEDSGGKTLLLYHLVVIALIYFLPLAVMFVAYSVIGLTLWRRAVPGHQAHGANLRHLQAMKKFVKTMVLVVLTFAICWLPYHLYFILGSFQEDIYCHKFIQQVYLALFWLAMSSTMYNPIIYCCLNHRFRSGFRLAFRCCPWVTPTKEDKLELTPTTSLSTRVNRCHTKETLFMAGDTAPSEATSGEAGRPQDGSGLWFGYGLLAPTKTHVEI
Nature of the series: Radioligand receptor binding inhibitory activity using membrane fraction of hNK2 receptor-expressing CHO cell ([125I]-NKA). Particulars: for inhibition at 1 µM / inhibition at 0.1 µM / inhibition at 0.01 µM: read-out: hNK2 receptor binding inhibitory activity (inhibitory rate (%)). As for the experimental part:
Radioligand Receptor Binding Inhibitory Activity Using Membrane Fraction of hNK2 Receptor-Expressing CHO Cell
hNK2 receptor-expressing CHO cells (produced by EUROSCREEN) were cultured in a flask placed HAM-F12 medium containing 400 μg/mL Geneticin, 100 U/mL penicillin, 100 μg/mL streptomycin and 10% inactivated serum. The medium was removed and adhered cells were washed with PBS, and PBS containing 5 mM EDTA was added to detach the cells from the flask. The cells were recovered by centrifugation, suspended in suspending buffer A (15 mM Tris-HCl (pH 7.5), 12.5 mM MgCl2, 0.3 mM EDTA, 1 mM EGTA (Ethylene Glycol Bis(beta-aminoethylether)-N,N,N,N-tetraacetic Acid)), disrupted by POLYTRON homogenizer (manufactured by KINEMATICA) and centrifuged at 850×g for 10 min at 4° C. The supernatant was recovered and ultracentrifuged at 142000×g for 60 min at 4° C. The precipitated fraction was suspended in suspending buffer B (7.5 mM Tris-HCl (pH 7.5), 12.5 mM MgCl2, 0.3 mM EDTA, 1 mM EGTA, 250 mM sucrose), and cryopreserved (at −80° C.) as a membrane fraction preparation of hNK2 receptor-expressing CHO cell.
The radioligand receptor binding assay was performed in a 96 well microassay plate format with a final volume of 200 μL.
An assay buffer (50 μL, 50 mM Tris-HCl (pH 7.4), 0.02% bovine serum albumin, 2 μg/mL chymostatin, 40 μg/mL bacitracin, 40 μg/mL APMSF, 3 mM MnCl2) was added to a 96 well microassay plate. Thereto was added 50 μL of the above-mentioned cryopreserved membrane fraction preparation suspended in the assay buffer (20 μg/mL). An assay buffer (50 μL) containing 2% dimethyl sulfoxide was added to examine the total binding, 4 μM unlabeled NKA (produced by Peptide Institute, Inc.) solution (50 μL) diluted with an assay buffer containing 2% dimethyl sulfoxide was added to examine non-specific binding, and a test compound diluted with an assay buffer (50 μL, containing 2% dimethyl sulfoxide) was added. Furthermore, […] [^125I]-NKA (produced by NEN) solution (50 μL) was added to each well.
After reaction at room temperature for 30 min, using a cell harvester (manufactured by PerkinElmer), the reaction was stopped by rapid filtration on a unifilter plate (GF/C) (manufactured by PerkinElmer), which had been immersed in 0.3% aqueous polyethyleneimine solution for one day, and the cells were washed 10 times with 50 mM Tris-HCl (pH 7.4) buffer (250 μL) containing 0.02% bovine serum albumin. The GF/C filter plate was dried and 20 μL of MicroScinti-0 (manufactured by PerkinElmer) was added to each well and the radioactivity was measured by TopCount (manufactured by PerkinElmer).
Specific binding is shown by the value obtained by subtracting non-specific binding from the total binding. The binding inhibitory activity of the test compound is shown by the ratio of the value obtained by subtracting the measured value associated with the addition of the test compound from the total binding, to the value of the specific binding.

Where a name gives a salt, the structure may show the parent alone.

The values that follow come from patent publication US20110112133A1, “DIHYDRO PYRROLOQUINOLINE DERIVATIVES” (Takeda Pharmaceutical Company Limited, priority 2009, published 2011).

As for `Cc1ccn(-c2ccc(C(=O)N[C@@H]3CCC(F)(F)C[C@@H]3C(=O)N3CCc4c(-c5ncc[nH]5)nc5ccc(F)cc5c43)cc2)n1` [Example 6, N-[(1R,2S)-4,4-difluoro-2-{[8-fluoro-4-(1H-imidazol-2-yl)-2,3-dihydro-1H-pyrrolo[3,2-c]quinolin-1-yl]carbonyl}cyclohexyl]-4-(3-methyl-1H-pyrazol-1-yl)benzamide hydrochloride], in series [1] (test compound 10^−6 M), the inhibition at 1 µM was 99.4%. Also, the inhibition at 0.1 µM in series [1] (test compound 10^−7 M) stood at 99.4%. The inhibition at 0.01 µM in series [1] (test compound 10^−8 M) is 96.1%.
Regarding `Cc1ccn(-c2ccc(C(=O)N[C@@H]3CCC(F)(F)C[C@@H]3C(=O)N3CCc4c(-c5ccsc5)nc5ccccc5c43)cc2)n1.Cl` [Example 8], the entries for the “hNK2 receptor binding inhibitory activity (inhibitory rate (%))” value in series [1] (test compound 10^−6 M), in series [1] (test compound 10^−7 M) and in series [1] (test compound 10^−8 M) were 100.7%, 100.2% and 98.5%, respectively.
As to `Cc1ccn(-c2ccc(C(=O)N[C@@H]3CCC(F)(F)C[C@@H]3C(=O)N3CCc4c(-c5ccccc5)nc5ccc(F)cc5c43)cc2)n1.Cl` [Example 10, N-{(1R,2S)-4,4-difluoro-2-[(8-fluoro-4-phenyl-2,3-dihydro-1H-pyrrolo[3,2-c]quinolin-1-yl)carbonyl]cyclohexyl}-4-(3-methyl-1H-pyrazol-1-yl)benzamide hydrochloride], the “hNK2 receptor binding inhibitory activity (inhibitory rate (%))” value in series [1] (test compound 10^−6 M) was 99.9%; in series [1] (test compound 10^−7 M), 99.5%; in series [1] (test compound 10^−8 M) it was 92.8%.
A word on the melting point: it is the temperature of the solid-liquid transition. Compound `Cc1ccn(-c2ccc(C(=O)N[C@@H]3CCC(F)(F)C[C@@H]3C(=O)N3CCc4c(-c5ncc[nH]5)nc5ccccc5c43)cc2)n1.Cl` [Example 12, N-[(1R,2S)-4,4-difluoro-2-{[4-(1H-imidazol-2-yl)-2,3-dihydro-1H-pyrrolo[3,2-c]quinolin-1-yl]carbonyl}cyclohexyl]-4-(3-methyl-1H-pyrazol-1-yl)benzamide hydrochloride] registered a melting point of 232 °C. Further, in series [1] (test compound 10^−6 M), the inhibition at 1 µM stood at 101%. Also, the inhibition at 0.1 µM in series [1] (test compound 10^−7 M) worked out at 101%. In addition, the inhibition at 0.01 µM in series [1] (test compound 10^−8 M) worked out at 99.8%.
